This note sets out measurements from article PMC7552917, “Systematic exploration of different E3 ubiquitin ligases: an approach towards potent and selective CDK6 degraders” (Chemical Science, 2020).

One data set has as its target T1, CDK4 (Homo sapiens, UniProt P11802).
T1 construct: Percentage values are normalized to DMSO-treated MM.1S cells and the respective loading controls; endogenous in cells; host or cells: MM.1S (human multiple myeloma)
The experiment in a line: CDK4 degradation, western blot of MM.1S cells. The class given is cell-based. Conditions: 16 h; for Effect of MDM2 ligands on CDK4 levels: indicated concentrations. An excerpt: (§1) We determined the concentration of both kinases and CRBN, the latter in order to control the expression of the corresponding ligase. Since IMiDs, such as pomalidomide, cause the degradation of the lymphoid transcription factors Ikaros (IKZF1) and Aiolos (IKZF3) through the involvement of CRBN,[53],[54] this undesired effect was inspected. […] As further characteristics of CDK4/6d, the desired selectivity of CDK6 over CDK4 degradation and the unwanted influence on the IKZF1 concentration were determined. […] Next, we determined the concentration- and time-dependent activity of 11 (Fig. S2, ESI ^†).
(§2) Multiple myeloma, leukaemia, and murine cell lines:
(§3) After respective designated treatments, cells were washed with 1× PBS and lysed in IP lysis buffer (Pierce) containing HALT protease and phosphatase inhibitor cocktail (Thermo Scientific). Sodium dodecyl sulfate-polyacrylamide gel electrophoresis (SDS-PAGE) was performed with 5–20 µg of protein loaded per sample. Gel electrophoresis was carried out at a constant voltage. Proteins were transferred onto Immobilon-P transfer membranes (Millipore). Membranes were blocked with 5% milk in Tris Buffered Saline with 0.05% Tween 20 (TBS-T) followed by overnight incubation at 4 °C with shaking in primary antibodies diluted in 5% BSA in TBS-T. After incubation with respective secondary HRP-conjugated antibodies diluted in 5% milk in TBST, detection of proteins was performed using either WesternBright ECL HRP substrate or WesternBright Sirius HRP substrate (Advansta). Chemiluminescence was detected with ChemiDoc™ XRS+ System (Bio-Rad). For further detection of other proteins on the same membrane, membranes were subjected to incubation in Restore Western Blot Stripping Buffer, followed by re-blocking, and further probing of proteins was […]
(In general: A western blot detects proteins with antibodies after separation by electrophoresis.)

The next data set deals with T2, IKZF1 (Homo sapiens, UniProt Q13422+Q96SW2).
T2 construct: endogenous in cells; host or cells: MM.1S (human multiple myeloma)
The experiment in a line: Neosubstrate IKZF1 degradation, western blot of MM.1S cells.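 On all read-outs here: test concentration 0.1 µM.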 The class given is cell-based. The note with it: 16 h, normalized to DMSO (100%); for remaining activity at 0.1 µM: MM1.S, read-out: D IKZF1: remaining IKZF1 levels.
From the text: as §1, §2, §3

The next data set concerns the target T3, CDK6 (Homo sapiens, UniProt Q00534).
T3 construct: Percentage values are normalized to DMSO-treated MM.1S cells and the respective loading controls; endogenous in cells; host or cells: MM.1S (human multiple myeloma)
The experiment in a line: CDK6 degradation, western blot of MM.1S cells. The class given is cell-based. Conditions: 16 h.
From the text: as §1, §2, §3

The nature of data set [1]: elog D7.4 by chromatographic (HPLC) method. The class given is physicochemical. The note with it: Polaris C18-A column, pH 7.4, read-out: elog D7.4 (experimental distribution coefficient at pH 7.4). On the procedure:
Supplementary Information: Physical Chemistry
N. Molecular Descriptor Calculation […]
O. Physicochemical Measurements
The determination of the elog D7.4 values was performed by a chromatographic method according to […]
The column was a Polaris C18-A column (2 mm I.D., 50 mm length, 3 μm particle size) from Agilent Technologies. A linear mobile phase gradient was applied with […] TRIS buffer adjusted to pH 7.4 and MeCN. Therefore, the gradient was run from 5% […]
between the runs with a constant flow-rate of 0.8 ml/min and a temperature of 25 °C. The output wavelength of the detector was set to 269.5 nm. In order to calibrate the log D7.4 to the retention time, 6 different drugs with known log D7.4 were dissolved in DMSO and 10 µl were injected […]
Approximately 1 mg of the samples was dissolved in DMSO and 5 µl were injected. Analyses were conducted in duplicates. Subsequently, the mean retention times of the analytes were taken to calculate their log D7.4 values with aid of the calibration line.

The mark [2] stands for this setting: MM1.S, 0.1 μM, MM.1S cells, normalized to DMSO (100%), read-out: D CDK4: remaining CDK4 levels.
Where [3] appears, read: MM1.S, 0.1 μM, MM.1S cells, normalized to DMSO (100%), read-out: D CDK6: remaining CDK6 levels.
Where [4] appears, read: 1 μM, MM.1S cells, normalized to DMSO (100%).

Like-named read-outs stand apart in the source and are kept apart here.

T1 sequence (P11802 whole entry): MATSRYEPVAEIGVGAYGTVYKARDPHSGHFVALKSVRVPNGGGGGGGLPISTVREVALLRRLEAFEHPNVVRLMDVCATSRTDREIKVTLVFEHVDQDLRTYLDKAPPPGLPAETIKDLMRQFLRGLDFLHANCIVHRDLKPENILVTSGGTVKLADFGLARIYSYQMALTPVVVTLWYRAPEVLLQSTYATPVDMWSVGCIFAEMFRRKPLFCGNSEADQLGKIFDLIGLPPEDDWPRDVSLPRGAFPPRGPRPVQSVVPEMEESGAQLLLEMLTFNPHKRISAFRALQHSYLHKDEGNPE
T3 sequence (Q00534 whole entry): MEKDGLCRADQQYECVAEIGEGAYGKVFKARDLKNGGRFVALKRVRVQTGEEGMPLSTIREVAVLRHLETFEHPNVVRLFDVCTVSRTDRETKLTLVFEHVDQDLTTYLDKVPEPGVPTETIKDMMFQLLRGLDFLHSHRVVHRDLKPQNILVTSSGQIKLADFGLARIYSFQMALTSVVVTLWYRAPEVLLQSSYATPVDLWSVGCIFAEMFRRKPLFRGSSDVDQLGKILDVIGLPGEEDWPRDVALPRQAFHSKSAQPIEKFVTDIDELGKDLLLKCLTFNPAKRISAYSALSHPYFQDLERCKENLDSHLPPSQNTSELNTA
T2 sequence (Q13422 whole entry): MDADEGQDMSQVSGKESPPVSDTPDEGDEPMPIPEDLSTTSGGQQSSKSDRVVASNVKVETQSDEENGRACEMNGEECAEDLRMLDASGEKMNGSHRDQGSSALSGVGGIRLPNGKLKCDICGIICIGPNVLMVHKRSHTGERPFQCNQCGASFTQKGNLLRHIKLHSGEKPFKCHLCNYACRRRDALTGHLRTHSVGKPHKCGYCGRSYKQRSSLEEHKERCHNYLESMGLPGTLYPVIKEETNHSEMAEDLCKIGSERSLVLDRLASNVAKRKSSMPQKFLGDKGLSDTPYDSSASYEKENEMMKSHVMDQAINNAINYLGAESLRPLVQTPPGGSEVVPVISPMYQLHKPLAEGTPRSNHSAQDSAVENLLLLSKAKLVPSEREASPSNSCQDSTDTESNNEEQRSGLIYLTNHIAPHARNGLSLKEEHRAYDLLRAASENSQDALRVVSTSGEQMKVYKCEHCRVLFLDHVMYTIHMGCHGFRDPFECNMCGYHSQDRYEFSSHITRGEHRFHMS
T2 sequence (Q96SW2 whole entry): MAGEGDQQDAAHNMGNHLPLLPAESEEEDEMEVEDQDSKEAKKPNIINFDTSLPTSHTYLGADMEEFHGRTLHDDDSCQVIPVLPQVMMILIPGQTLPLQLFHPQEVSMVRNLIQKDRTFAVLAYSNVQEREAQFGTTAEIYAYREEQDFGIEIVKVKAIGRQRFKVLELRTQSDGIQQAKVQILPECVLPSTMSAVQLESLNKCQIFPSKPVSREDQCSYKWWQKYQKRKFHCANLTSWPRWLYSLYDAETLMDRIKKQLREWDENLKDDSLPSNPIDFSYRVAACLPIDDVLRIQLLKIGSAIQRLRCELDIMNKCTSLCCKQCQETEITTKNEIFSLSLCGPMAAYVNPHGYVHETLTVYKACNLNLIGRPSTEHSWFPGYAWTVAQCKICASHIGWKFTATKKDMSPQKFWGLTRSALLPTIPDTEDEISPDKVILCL
T2 sequence (Q16531 whole entry partner): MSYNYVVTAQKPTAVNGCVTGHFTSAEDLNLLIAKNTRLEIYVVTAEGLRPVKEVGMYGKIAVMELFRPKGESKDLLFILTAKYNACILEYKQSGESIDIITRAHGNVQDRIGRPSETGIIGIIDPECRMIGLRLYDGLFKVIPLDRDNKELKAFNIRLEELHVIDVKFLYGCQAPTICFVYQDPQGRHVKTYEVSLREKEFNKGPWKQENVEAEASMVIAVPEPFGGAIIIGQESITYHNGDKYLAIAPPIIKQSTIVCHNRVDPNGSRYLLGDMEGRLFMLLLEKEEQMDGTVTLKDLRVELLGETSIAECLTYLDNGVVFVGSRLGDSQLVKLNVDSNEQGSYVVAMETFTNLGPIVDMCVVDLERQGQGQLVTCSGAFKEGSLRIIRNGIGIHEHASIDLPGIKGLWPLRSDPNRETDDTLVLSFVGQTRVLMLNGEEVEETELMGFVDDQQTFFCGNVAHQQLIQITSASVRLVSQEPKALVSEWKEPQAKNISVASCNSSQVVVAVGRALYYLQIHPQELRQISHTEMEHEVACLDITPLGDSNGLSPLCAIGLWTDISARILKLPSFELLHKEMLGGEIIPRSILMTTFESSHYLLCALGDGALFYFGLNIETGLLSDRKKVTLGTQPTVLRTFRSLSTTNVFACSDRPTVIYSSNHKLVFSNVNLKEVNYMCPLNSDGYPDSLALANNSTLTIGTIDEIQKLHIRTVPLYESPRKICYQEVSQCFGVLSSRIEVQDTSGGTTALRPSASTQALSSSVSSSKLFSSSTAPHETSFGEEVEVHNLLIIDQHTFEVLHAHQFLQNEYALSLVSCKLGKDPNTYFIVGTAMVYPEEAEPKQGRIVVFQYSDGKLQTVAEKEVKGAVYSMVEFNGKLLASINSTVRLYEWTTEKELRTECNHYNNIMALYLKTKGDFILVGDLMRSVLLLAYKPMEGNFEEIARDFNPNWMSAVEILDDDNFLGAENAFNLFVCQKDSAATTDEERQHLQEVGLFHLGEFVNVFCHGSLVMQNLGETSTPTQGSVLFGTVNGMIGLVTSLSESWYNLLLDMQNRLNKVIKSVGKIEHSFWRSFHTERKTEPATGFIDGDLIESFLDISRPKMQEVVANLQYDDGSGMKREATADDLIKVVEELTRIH

Take `Nc1cccc2c1C(=O)N(C1CCC(=O)NC1=O)C2=O` (centres unmarked) [3 (POM), pomalidomide, reference compound]: the remaining activity at 0.1 µM on CDK4 (setting [2]) and on CDK6 (setting [3]) was 91% throughout. Besides, the “D IKZF1: remaining IKZF1 levels” value at IKZF1 (0.1 μM) is recorded as 17%.
With `COc1cc(C(=O)O)ccc1NC(=O)[C@@H]1N[C@@H](CC(C)(C)C)[C@](C#N)(c2ccc(Cl)cc2F)[C@H]1c1cccc(Cl)c1F` [6 (Idasanutlin), idasanutlin, reference compound], the figures for the remaining activity at 0.1 µM at CDK4 (setting [2]) and on CDK6 (setting [3]) were 78% and 83%, respectively. Further, the remaining activity at 1 µM came to 40% at CDK4 (MM1.S, 1 μM, MM.1S cells, normalized to DMSO (100%), read-out: D CDK4: remaining CDK4 levels) and 70% on CDK6 (MM1.S, 1 μM, MM.1S cells, normalized to DMSO (100%), read-out: D CDK6: remaining CDK6 levels). The “Effect of MDM2 ligands on CDK4 levels” value on CDK4 (MM.1S cells) is given as “dose-dependent effects on CDK4 levels”. Moreover, the “Selectivity ratio D CDK4/D CDK6 for the degradation of CDK6 over CDK4” value (shortened to “Selectivity ratio D CDK4/D CDK6”) at CDK6 (0.1 μM, MM.1S cells) was 0.9.
Regarding `CC(C)[C@@H](CS(=O)(=O)C(C)C)N1C(=O)[C@@](C)(CC(=O)O)C[C@H](c2cccc(Cl)c2)[C@H]1c1ccc(Cl)cc1` [AMG232, reference compound], the “Effect of MDM2 ligands on CDK4 levels” value on CDK4 (MM.1S cells) is recorded as “diminished CDK4 levels in a dose-dependent manner”.
With `CC(=O)c1c(C)c2cnc(Nc3ccc(N4CCN(C(=O)COCCOCCNc5cccc6c5C(=O)N(C5CCC(=O)NC5=O)C6=O)CC4)cn3)nc2n(C2CCCC2)c1=O` (centres unmarked) [compound 12], the remaining activity at 0.1 µM is 19% on CDK4 (setting [2]), 0.8% at IKZF1 and 8.4% on CDK6 (setting [3]). In addition, the “Selectivity ratio D CDK4/D CDK6” value at CDK6 (0.1 μM, MM.1S cells) stood at 2.3. Also, the chromatographic logD in data set [1] was determined as 2.8.
With `CC(=O)c1c(C)c2cnc(Nc3ccc(N4CCN(C(=O)COCCOCCOCCNc5cccc6c5C(=O)N(C5CCC(=O)NC5=O)C6=O)CC4)cn3)nc2n(C2CCCC2)c1=O` (centres unmarked) [compound 13], the results for the remaining activity at 0.1 µM at CDK4 (setting [2]), on IKZF1 and on CDK6 (setting [3]) were 15%, 1% and 7.7%, respectively. Moreover, the “Selectivity ratio D CDK4/D CDK6” value at CDK6 (0.1 μM, MM.1S cells) is recorded as 1.9. The chromatographic logD in data set [1] stood at 2.8.
In the same order, the values of `CC(=O)c1c(C)c2cnc(Nc3ccc(N4CCN(C(=O)CCCCOCCOCCOCCNc5cccc6c5C(=O)N(C5CCC(=O)NC5=O)C6=O)CC4)cn3)nc2n(C2CCCC2)c1=O` (centres unmarked) [compound 14] are 26%, 0.8%, 7.8%, 3.3 and 3.1.
In the case of `CC(=O)c1c(C)c2cnc(Nc3ccc(N4CCN(C(=O)CCC(=O)NCCCOCCCCOCCCNc5cccc6c5C(=O)N(C5CCC(=O)NC5=O)C6=O)CC4)cn3)nc2n(C2CCCC2)c1=O` (centres unmarked) [compound 15], the figures for the remaining activity at 0.1 µM at CDK4 (setting [2]), on IKZF1 and at CDK6 (setting [3]) were 91%, 56% and 65%, respectively. Further, the “Selectivity ratio D CDK4/D CDK6” value on CDK6 (0.1 μM, MM.1S cells) is recorded as 1.4. The chromatographic logD in data set [1] is 3.1.
For `CC(=O)c1c(C)c2cnc(Nc3ccc(N4CCN(C(=O)CCCCOCCCCCOCCCCCCNc5cccc6c5C(=O)N(C5CCC(=O)NC5=O)C6=O)CC4)cn3)nc2n(C2CCCC2)c1=O` (centres unmarked) [compound 16] the same measures were 76%, 6.7%, 32%, 2.4 and 4.6.
As to `CC(=O)c1c(C)c2cnc(Nc3ccc(N4CCN(CCOCCOCC(=O)N[C@H](C(=O)N5C[C@H](O)C[C@H]5C(=O)NCc5ccc(-c6scnc6C)cc5)C(C)(C)C)CC4)cn3)nc2n(C2CCCC2)c1=O` [compound 23], the remaining activity at 0.1 µM on CDK4 (setting [2]) worked out at 61%; on CDK6 (setting [3]), 8.2%. For the same compound, the “Selectivity ratio D CDK4/D CDK6” value on CDK6 (0.1 μM, MM.1S cells) is on record as 7.4. Moreover, the chromatographic logD in data set [1] turned out to be 2.7.
With `CC(=O)c1c(C)c2cnc(Nc3ccc(N4CCN(CCOCCOCCOCC(=O)N[C@H](C(=O)N5C[C@H](O)C[C@H]5C(=O)NCc5ccc(-c6scnc6C)cc5)C(C)(C)C)CC4)cn3)nc2n(C2CCCC2)c1=O` [compound 24], the remaining activity at 0.1 µM was 80% at CDK4 (setting [2]) and 14% at CDK6 (setting [3]). Moreover, the “Selectivity ratio D CDK4/D CDK6” value at CDK6 (0.1 μM, MM.1S cells) came to 5.7. The chromatographic logD in data set [1] stood at 3.5.
As to `CC(=O)c1c(C)c2cnc(Nc3ccc(N4CCN(CCCCCCOCCCCCOCCCCC(=O)N[C@H](C(=O)N5C[C@H](O)C[C@H]5C(=O)NCc5ccc(-c6scnc6C)cc5)C(C)(C)C)CC4)cn3)nc2n(C2CCCC2)c1=O` [compound 25], the values for the remaining activity at 0.1 µM at CDK4 (setting [2]) and at CDK6 (setting [3]) were > 95% and 40%, respectively. Besides, in data set [1], the chromatographic logD stood at 4.8.
For `CC(=O)c1c(C)c2cnc(Nc3ccc(N4CCN(CCCCCCCCOc5cc(-c6scnc6C)ccc5CNC(=O)[C@@H]5C[C@@H](O)CN5C(=O)[C@H](C(C)C)N5Cc6ccccc6C5=O)CC4)cn3)nc2n(C2CCCC2)c1=O` [compound 28] the same measures were > 95%, 62% and 4.5.
Regarding `CC(=O)c1c(C)c2cnc(Nc3ccc(N4CCN(CCOCCOCCOc5cc(-c6scnc6C)ccc5CNC(=O)[C@@H]5C[C@@H](O)CN5C(=O)[C@H](C(C)C)N5Cc6ccccc6C5=O)CC4)cn3)nc2n(C2CCCC2)c1=O` [compound 29], the figures for the remaining activity at 0.1 µM on CDK4 (setting [2]) and at CDK6 (setting [3]) were > 95% and 29%, respectively. In addition, in data set [1], the chromatographic logD is 3.2.
As for `CC(=O)c1c(C)c2cnc(Nc3ccc(N4CCN(CCOCCOCCOCCOc5cc(-c6scnc6C)ccc5CNC(=O)[C@@H]5C[C@@H](O)CN5C(=O)[C@H](C(C)C)N5Cc6ccccc6C5=O)CC4)cn3)nc2n(C2CCCC2)c1=O` [compound 30], the values for the remaining activity at 0.1 µM on CDK4 (setting [2]) and at CDK6 (setting [3]) were 94% and 69%, respectively. Also, on CDK6 (0.1 μM, MM.1S cells), the “Selectivity ratio D CDK4/D CDK6” value is given as 1.4. Moreover, the chromatographic logD in data set [1] turned out to be 3.1.
As to `CC(=O)c1c(C)c2cnc(Nc3ccc(N4CCN(CCCCCCOCCCCCOCCCCCOc5cc(-c6scnc6C)ccc5CNC(=O)[C@@H]5C[C@@H](O)CN5C(=O)[C@H](C(C)C)N5Cc6ccccc6C5=O)CC4)cn3)nc2n(C2CCCC2)c1=O` [compound 31], the remaining activity at 0.1 µM on CDK4 (setting [2]) is > 95%; at CDK6 (setting [3]), 65%. Further, in data set [1], the chromatographic logD amounted to 5.3.
Consider `CC(=O)c1c(C)c2cnc(Nc3ccc(N4CCN(CCOCCOCCOc5cc(-c6scnc6C)ccc5CNC(=O)[C@@H]5C[C@@H](O)CN5C(=O)[C@@H](NC(=O)C5(C#N)CC5)C(C)(C)C)CC4)cn3)nc2n(C2CCCC2)c1=O` [compound 33], for which the remaining activity at 0.1 µM was determined as 65% on CDK4 (setting [2]) and 1.4% on CDK6 (setting [3]). For the same compound, the “Selectivity ratio D CDK4/D CDK6” value on CDK6 (0.1 μM, MM.1S cells) worked out at 46. Further, the chromatographic logD in data set [1] is 3.
As to `CN[C@H](C)C(=O)N[C@H](C(=O)N1C[C@@H](Oc2cccc(OCCOCCOCCOCCN3CCN(c4ccc(Nc5ncc6c(C)c(C(C)=O)c(=O)n(C7CCCC7)c6n5)nc4)CC3)c2)C[C@H]1C(=O)N[C@@H]1CCCc2ccccc21)C1CCCCC1` [compound 36], at CDK4 (setting [4]), the “D CDK4: remaining CDK4 levels” value was “failed to degrade”. In addition, the remaining activity at 0.1 µM at CDK4 (MM1.S, read-out: D CDK4: remaining CDK4 levels) was > 95%; at CDK6 (MM1.S, read-out: D CDK6: remaining CDK6 levels), > 95%. The “D CDK6: remaining CDK6 levels” value at CDK6 (setting [4]) is on record as “failed to degrade”. The chromatographic logD in data set [1] was 4.5.
